Laboratory results: patent US20060014231A1, “Methods and compositions to promote bone homeostasis” (priority 2004, published 2006)

T1: NR1H3 (Homo sapiens, UniProt Q13133)
T1 construct: amplification of the complete open reading frame from ATG start codon to the stop codon of drugable genes; expressed in transfected cells; host or cells: primary human bone-marrow mesenchymal progenitor cells (MPCs), adenoviral transduction (Ad5-NR1H3 with Ad-hCAR)
T1 sequence (Q13133 1-447): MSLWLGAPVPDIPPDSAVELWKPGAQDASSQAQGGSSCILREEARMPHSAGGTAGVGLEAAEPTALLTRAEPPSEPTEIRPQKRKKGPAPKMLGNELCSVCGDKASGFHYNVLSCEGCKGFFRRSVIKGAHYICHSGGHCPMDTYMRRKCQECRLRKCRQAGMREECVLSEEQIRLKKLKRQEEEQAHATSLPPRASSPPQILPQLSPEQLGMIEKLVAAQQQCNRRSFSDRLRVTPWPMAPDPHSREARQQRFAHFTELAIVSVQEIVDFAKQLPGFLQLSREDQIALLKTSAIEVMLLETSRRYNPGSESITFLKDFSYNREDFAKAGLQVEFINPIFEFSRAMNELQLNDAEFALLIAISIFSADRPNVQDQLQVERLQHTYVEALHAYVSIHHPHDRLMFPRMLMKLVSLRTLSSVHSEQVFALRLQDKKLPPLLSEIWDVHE

T2: NR1H2 (Homo sapiens, UniProt P55055)
T2 construct: amplification of the complete open reading frame from ATG start codon to the stop codon of drugable genes; expressed in transfected cells; host or cells: primary human bone-marrow MPCs, adenoviral transduction (Ad5-NR1H2 with Ad-hCAR)
T2 sequence (P55055 1-460): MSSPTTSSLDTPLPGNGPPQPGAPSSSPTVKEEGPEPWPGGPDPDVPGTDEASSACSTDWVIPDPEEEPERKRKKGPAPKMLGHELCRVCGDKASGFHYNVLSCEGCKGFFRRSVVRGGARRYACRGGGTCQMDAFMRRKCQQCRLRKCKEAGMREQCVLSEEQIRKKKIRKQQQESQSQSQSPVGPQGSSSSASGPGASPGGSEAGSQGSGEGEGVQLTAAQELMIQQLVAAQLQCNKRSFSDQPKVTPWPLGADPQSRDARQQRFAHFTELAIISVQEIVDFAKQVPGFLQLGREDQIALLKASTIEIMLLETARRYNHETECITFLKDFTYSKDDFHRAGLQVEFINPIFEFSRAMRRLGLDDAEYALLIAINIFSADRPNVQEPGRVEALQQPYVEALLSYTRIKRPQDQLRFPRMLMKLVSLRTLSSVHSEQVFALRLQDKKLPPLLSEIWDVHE

B1: PTH: recombinant human parathyroid hormone, known osteogenic agent (protein, UniProt P01270 32-115, looked up)
Parathyroid hormone: SVSEIQLMHNLGKHLNSMERVEWLRKKLQDVHNFVALGAPLAPRDAGSQRPRKKEDNVLVESHEKSLGEADKADVNVLTKAKSQ
modifications: Parathyroid hormone
notes: recombinant human parathyroid hormone, known osteogenic agent

What was measured:
NR1H3 = target: T1, NR1H3; experiment: Alkaline phosphatase (AP) assay in MPCs infected with Ad-NR1H3 and treated with ligand; assay type: cell-based; conditions: MPCs infected with Ad-NR1H3, increasing ligand concentrations, MUP fluorescence readout
Description: Cellular AP activity is determined 6 days after the infection (or ligand addition—see below). The principle of the assays is depicted in FIG. 2. Mesenchymal stem cells derived from bone marrow are infected with the FLeXSelect™ cDNA library viruses in the presence of Ad5C15-hCAR or Ad5C20-hCAR virus. Six days after the start of infection or treatment with a ligand, endogenous alkaline phosphatase activity is measured following addition of 4-methylumbelliferyl […] (MUP) substrate.
The stocks of the Ad-control-viruses are generated in 96 well plates (control plate). The 2 μl volume corresponds to a theoretical MOI of 5000. Controls are: P1=Ad-BMP2; P2=Ad-H4-2; P3=Ad-H4-291; N1=Ad-LacZ; N2=Ad-empty; N3=Ad-eGFP. Up-regulation of alkaline phosphatase is read at 6 days post infection (6 dpi): 15 μl 4-Methylumbelliferyl-phosphate (MUP, Sigma) is added to each well, the plates are incubated for 15 min at 37° C. and monitored for AP activity using a fluorescence plate reader (Fluostar, BMG).
These dose-response curves are depicted in FIG. 5. […] MPCs are seeded on day 0 at 1000 cells per well of a 384 well plate and co-infected the next day using AdC51-hCAR (MOI 250) and different MOIs of Ad5-NR1H3 (MOI 12000, 4000, 1333, 444).
After 6 days, medium is removed and replaced with fresh medium containing the same concentrations of the compound GW3965. Readouts of AP activity are performed at several time points after the start of the experiment, typically after 7, 10 and 13 days.
After 6 days, medium is removed and replaced with fresh medium containing the same concentrations of the compound APD.

NR1H2 = target: T2, NR1H2; experiment: Alkaline phosphatase (AP) assay in MPCs infected with Ad-NR1H2 and treated with ligand; assay type: cell-based; conditions: MPCs infected with Ad-NR1H2, increasing ligand concentrations, MUP readout after 7, 10 and 13 days
Description: (§1) After 6 days, medium is removed and replaced with fresh medium containing the same concentrations of the compound T0901317. Readouts of AP activity are performed at several time points after the start of the experiment, typically after 7, 10 and 13 days. Up-regulation of alkaline phosphatase activity is read as follows: medium is removed from the monolayers, 15 μl MUP is added to each well, the plates are incubated for 15 min at 37° C. and then read for AP activity using a fluorescence plate reader (Fluostar, BMG).
as §1, with “MPCs are seeded on day 0 at 1000 cells per well of a 384 well plate and co-infected the next day using AdC51-hCAR (MOI 250) and different MOIs of Ad5-NR1H2 (MOI 2000, 666). On day 1, 9 concentrations (1.52E-9M, 4.57E-9M, 1.37E-8M, 4.12E-8M, 1.23E-7M, 3.7E-7M, 1.11E-6M, 3.33E-6M, 1E-5M) of the compound GW3965 with fixed vehicle concentration (DMSO at final concentration of 0.161%) are added to the wells. After” for “After”, “GW3965.” for “T0901317.”
as §1, with “APD.” for “T0901317.”

GPR65 = target: T3, GPR65 (Homo sapiens, UniProt Q8IYL9); experiment: Alkaline phosphatase (AP) assay in MPCs infected with Ad-GPR65 and treated with ligand; assay type: cell-based; conditions: MPCs infected with Ad-GPR65, increasing ligand concentrations
T3 construct: amplification of the complete open reading frame from ATG start codon to the stop codon of drugable genes; expressed in transfected cells; host or cells: primary human bone-marrow MPCs, adenoviral transduction (Ad-GPR65 with Ad-hCAR)
T3 sequence (Q8IYL9 whole entry): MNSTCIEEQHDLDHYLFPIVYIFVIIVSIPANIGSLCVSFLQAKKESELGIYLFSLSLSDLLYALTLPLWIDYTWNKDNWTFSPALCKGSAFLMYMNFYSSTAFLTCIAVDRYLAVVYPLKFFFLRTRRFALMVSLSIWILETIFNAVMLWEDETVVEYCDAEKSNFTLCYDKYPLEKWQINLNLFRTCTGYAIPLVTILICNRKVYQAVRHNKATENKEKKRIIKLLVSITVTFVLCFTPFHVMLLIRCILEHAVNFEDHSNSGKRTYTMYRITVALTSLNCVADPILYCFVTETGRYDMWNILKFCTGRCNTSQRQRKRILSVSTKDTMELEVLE
Description: These dose-response curves are depicted in FIG. 5. A dose-response curve for AP activity is generated for MPCs infected with Ad-NR1H3 and treated with T0901317 (FIG. 5A). MPCs are seeded on day 0 at 1000 cells per well of a 384 well plate and co-infected the next day using AdC51-hCAR (MOI 250) and different MOIs of Ad5-NR1H3 (MOI 12000, 4000, 1333, 444). On day 1, 5 concentrations (1E-10M, 1E-9M, 1E-8M, 1E-7M, 1E-6M) of the compound T0901317 (Cayman Chemical, Michigan USA, Cat. No. 71810) with fixed vehicle concentration (the vehicle is DMSO at the concentration is 0.01 %) are added to the wells. After incubation for 6 days at 37° C., 10% CO2 in a humidified incubator, up-regulation of alkaline phosphatase is read: 15 μl MUP is added to each well, the plates are incubated for 15 min at 37° C. and monitored for AP activity using a fluorescence plate reader (Fluostar, BMG).
Dose-response curves for AP activity are generated in a similar way for MPCs infected with Ad-GPR65 and treated with 1-b-D-Galactosylsphingosine (FIG. 5B); for MPCs infected with Ad-AVPR2 and treated with [deamino-Cys1, D-Arg8]-Vasopressin (DDAVP) (FIG. 5C).

MPCs = experiment: Up-regulation of NR5A2 and NR1H3 mRNA levels by osteogenic triggers in MPCs; assay type: cell-based, human; conditions: final concentration 0.1 μM, versus vehicle, several time points
Description: 100,000 MPCs are seeded in each well of a 6 well plate in 2 ml MPC medium, containing 10% FCS. The next day, after incubation at 37° C., 10% CO2 in a humidified incubator, cells are co-infected with AdC15-hCAR (final MOI of 750) and Ad-BMP2, Ad-RUNX2, Ad-MSX2, Ad-PTHR1/PTHLH or Ad-eGFP or Ad-luciferase as negative controls (final MOIs of 1250 and 2500). Alternatively, cells are treated with dexamethasone (final concentration 0.1 μM), VitD3 (final concentration 0.1 μM) or the vehicle controls (0.1% EtOH or DMSO). Cells are incubated at 37° C., 10% CO2 in a humidified incubator for a further six days unless cells are already harvested for RNA isolation. Virus is removed and replaced by 2 ml fresh OS medium (proprietary medium containing 10% FCS). Over the next 18 days, medium is refreshed 3 times per 2 weeks. Every other time, medium is refreshed half or completely. […] The fold up-regulation of NR5A2 or NR1H3 mRNA compared to negative controls (vehicle for dexamethasone or VitD3 treatment) or Ad-luciferase for Ad-infections) is calculated (FIG. 16).

[1] = tested on: calvarial skull bones (hemicalvaria); experiment: Calvarial skull assay (bone organ culture, weight and histological readout); design: species or system CD1 mice; conditions: histological readout
Description: CD1 pups are harvested around birth from CD1 female mice (received from Janvier (Le Genest St Isle, France) when they were 11 days pregnant). Pups are decapitated and the calvarial skull is dissected and split into 2 hemicalvaria. Hemicalvaria are blotted using sterile gauze, weighed and cultured in 24 well plates (MEMalpha or BGJb-Fitton-Jackson medium containing 50 μg/ml L-ascorbic acid (Sigma, A-4034), 5 mM β-glycerophosphate (Sigma, G-9891) and Penicillin-Streptomycin (Invitrogen Cat # 15140-122)). Small molecules (ligands, agonists, antagonists) are tested in at least three-fold at a minimum of 3 concentrations. Each small molecule is added to the medium on day 0 and added again when refreshing the medium (every 2-3 days). Three to 16 days after the start of the experiment, skulls are weighed again after blotting them dry using sterile gauze. The weight difference is calculated, expressed as percent weight change and the mean and standard deviations (SD) are calculated for the triplicate measurements. Data are analyzed using the Student's t-test.
The formation of new osteoid is analyzed histologically as follows: hemicalvaria are fixed in 10% buffered formalin for at least 2 days, decalcified in 10% EDTA overnight, processed through graded alcohols and embedded in paraffin wax. Three to 10 μm sections are prepared of the calvaria and stained with hematoxylin and eosin (H&E). Healthy cells, dead cells, old and new bone, and collagen are identified by their distinctive morphology and colouring observed after H&E staining. The surfaces taken by these are measured stereologically (μm^2 readout) and termed Osteoblast area, Debris area, Native and New bone area, Collagen area and Total area (sum of the previous 5 areas), respectively. In addition, the thickness (μm readout) is measured at 8 positions, evenly spaced over the section.
The histological readout of the calvarial skull assay is developed using known osteogenic agents. Hemicalvaria were treated with recombinant human parathyroid hormone (rhPTH).
T0901317 is added to the culture medium of the dissected hemicalvaria at the day of dissection at several doses (19.5, 78.1 and 313 nM), in fourfold. The concentration of the solvent (vehicle), DMSO, is fixed at a final concentration of 0.05%. The medium, containing T0901317 or vehicle control is refreshed every 2-3 days. Hemicalvaria are harvested 7 days after the initiation of the experiment and subjected to the histological analysis described above.

Row | Molecule | up-regulation of endogenous alkaline phosphatase (AP) activity (NR1H3) | up-regulation of alkaline phosphatase (AP) activity (NR1H2) | other results
1 | CC(=O)Oc1ccc2c(c1)[C@@]1(C)CCC[C@](C)(C(=O)OC(=O)[C@@]3(C)CCC[C@]4(C)c5cc(OC(C)=O)ccc5CC[C@@H]34)[C@@H]1CC2 [APD, acetyl podocarpic dimer] | dose-response relation | dose-response relation | 
2 | O=C(O)Cc1cccc(OCCCN(Cc2cccc(C(F)(F)F)c2Cl)CC(c2ccccc2)c2ccccc2)c1 [GW3965] | dose-response relation | dose-response relation | 
3 | CCCCCCCCCCCCCC=CC(O)C(N)CO[C@@H]1O[C@H](CO)[C@H](O)[C@H](O)[C@H]1O (stereo partly drawn) [1-b-D-Galactosylsphingosine] |  |  | up-regulation of endogenous alkaline phosphatase (AP) activity (GPR65): dose-dependently increase
4 | C=C1CC[C@H](O)C/C1=C/C=C1\CCC[C@]2(C)[C@@H]([C@H](C)CCCC(C)C)CC[C@@H]12 [VitD3] |  |  | NR5A2 mRNA levels (MPCs): up-regulated
5 | B1 |  |  | effect on bone tissue ([1]; 10^−7 M): resorptive effect; effect on bone tissue ([1]; 10^−11 M): induces bone build-up
